The values that follow come from the RepoRT retention time repository.

Molecules are shown by their SMILES.

The nature of the data set: Agilent ZORBAX 300 SB-C18, 150 × 1 mm, 3.5 µm; A: water + 0.01% heptafluorobutyric acid; B: acetonitrile + 0.01% heptafluorobutyric acid; gradient (min/%B) 0/0 100/90. The settings on record: stereoisomer not certain.
On to `c1ccc(-c2ccnc(-c3cc(-c4ccccc4)ccn3)c2)cc1`, for which the LC retention time was 14.9 min.

As for `O=C(Nc1ccc2[nH]c(=O)[nH]c2c1)c1ccco1`, the LC retention time was found to be 7.75 min.

Take `c1ccnnc1`: the LC retention time was 4.58 min.

For the molecule `C[N+]1(CCOCc2ccccc2)CC[N+](C)(CCOCc2ccccc2)CC1` (stereo not given), the LC retention time came out at 9.32 min.

Turning to `C1=CCNC1`, the LC retention time was 2.99 min.

As to `Cc1[nH]c(=S)[nH]c1CC(C)C`, the LC retention time was found to be 9.02 min.

Take `COc1cc(Cc2cnc(N)nc2N)cc(OC)c1OC`: the LC retention time stood at 8.69 min.

`CN(C)C=CC(=O)c1ccc2ccccc2c1`: the LC retention time is 12.2 min.

In the case of `NC1CCOCC1`, the LC retention time was determined as 4.24 min.

As to `c1ccc(Sc2ccc3ccccc3n2)cc1`, the LC retention time was 16.3 min.

With `COc1ccc(C(=O)C=Cc2ccc(OC)c(COc3cccc(C)c3C)c2)cc1`, the LC retention time came out at 19.9 min.

For `O=c1[nH]c(N=NCc2c[nH]c3ccccc23)nnc1-c1ccccc1`, the LC retention time came to 11.8 min.

With `CCCCN(CC)CC`, the LC retention time came to 7.73 min.

Turning to `Cc1ccc(C(=O)Nc2ccc3[nH]c4c(c3c2)CCCC4)cc1`, the LC retention time turned out to be 15.1 min.

As for `CN(C)C(=O)Oc1cc(OC(=O)N(C)C)cc(C(O)CNC(C)(C)C)c1` (stereo not given), the LC retention time worked out at 9.59 min.

`CCOC(=O)C=CC(=O)NNC(=O)CCC(=O)Nc1ccc(C)cc1C`: the LC retention time is 10.1 min.

`O=C(O)C1CCCCC1C(=O)Nc1ccc2c(c1)CCCC2` (stereo not given): the LC retention time was determined as 13.8 min.

As for `O=C(O)c1ccncn1`, the LC retention time was 2 min.

`NC(N)=NC(CC(=O)O)C(=O)O` (stereo not given): the LC retention time is 2.11 min.

As for `COc1ccc(CCN2C(=O)C(C)C(Cc3ccc(C)cc3)C2=O)cc1OC` (stereo not given), the LC retention time stood at 15.9 min.

Turning to `O=C(NN=Cc1cc2ccccc2[nH]1)c1ccccc1`, the LC retention time was 10.9 min.

Regarding `CC1Cc2ccccc2N1` (stereo not given), the LC retention time came out at 7.66 min.

As for `CCOC(=O)CN`, the LC retention time amounted to 6.34 min.

`NC(=O)c1cn(CC(=O)O)c(=O)[nH]c1=O`: the LC retention time turned out to be 1.6 min.

Take `CCCN(CCC)CCC`: the LC retention time stood at 8.17 min.

Turning to `CC(=O)NNc1nc(C)cc(C)n1`, the LC retention time was 6.5 min.

Take `CN(C)CC(C)(C)CO`: the LC retention time came out at 6.43 min.

Turning to `c1ccc(C(NCc2cccs2)c2ccccc2)cc1`, the LC retention time worked out at 11.8 min.

`CCN1C(=O)CC(N2CCC(n3c(=O)[nH]c4ccccc43)CC2)C1=O` (stereo not given): the LC retention time turned out to be 8.81 min.

Consider `O=c1cc(Nc2ccccc2)c2ccccc2o1`, for which the LC retention time turned out to be 12.2 min.

Regarding `Nc1cccc(-c2cc3ccccc3oc2=O)c1`, the LC retention time is 10.4 min.

Regarding `Cc1ccncc1`, the LC retention time was found to be 6.26 min.

In the case of `CN(C)c1ccc(C=NNC(=O)Cc2n[nH]c(=O)[nH]c2=O)cc1`, the LC retention time was 8.47 min.

With `O=S(=O)(O)CCN1CCN(CCO)CC1`, the LC retention time is 1.95 min.

In the case of `Nc1cc(=O)[nH]c(=S)[nH]1`, the LC retention time came to 2.25 min.

`Cn1c(C(c2ccccc2)c2ccccc2)n[nH]c1=S`: the LC retention time was 12.9 min.

With `Cc1ccc(C(=O)NCCn2cccc2)cc1`, the LC retention time worked out at 11.9 min.

In the case of `Cn1c(=O)c2ccc(C(=O)Nc3ccc4ccccc4n3)cc2c(=O)n1C`, the LC retention time stood at 10.4 min.

For the molecule `Cc1nn(CC(=O)NCCO)c(=O)c2ccccc12`, the LC retention time was 7.72 min.

For `COc1ccc(N)c(C)c1C`, the LC retention time came out at 8.59 min.

With `Cc1cc(-c2ccccc2)cc(-c2ccccc2)n1`, the LC retention time is 12.1 min.

Regarding `Cc1ccc(NC(=O)CCN2CCN(C)CC2)cc1`, the LC retention time is 8.34 min.

As for `NCCN1CCNCC1`, the LC retention time turned out to be 6.42 min.

With `O=c1[nH]c(-c2ccccc2)cn1C1CCNCC1`, the LC retention time was determined as 8.03 min.

Turning to `CCOC1COCC1N` (stereo not given), the LC retention time came to 6.48 min.

In the case of `CN1CCCN(C)C1=O`, the LC retention time stood at 6.94 min.

`C1CNCCN1`: the LC retention time is 6.38 min.

With `Oc1ccccc1N1CCCCC1`, the LC retention time stood at 7.89 min.

Turning to `Cc1cccc(CN2CCN(CN3C(=O)c4ccccc4C3=O)CC2)c1`, the LC retention time is 10.3 min.

Consider `COc1cccc2c1NC(CCc1ccccc1N)CC2` (stereo not given), for which the LC retention time turned out to be 12.1 min.

In the case of `OCC1Cc2ccccc2CN1` (stereo not given), the LC retention time was found to be 7.39 min.

For `Nc1cc(N)cc(C(=O)O)c1`, the LC retention time is 4.34 min.

Consider `c1ccc(-c2nc(-c3cccnc3)[nH]c2-c2ccccc2)cc1`, for which the LC retention time was found to be 11 min.

Turning to `CC(=O)Nc1ccc(NC(=O)CCC(=O)O)cc1`, the LC retention time is 6.9 min.

For `Cc1ccc(C)c(NC(=O)C(=O)NCC(C)O)c1` (stereo not given), the LC retention time amounted to 10.5 min.

Consider `COc1cc(N2C=C3N=C(c4ccccc4)NN3C=N2)cc(OC)c1OC`, for which the LC retention time stood at 12.1 min.

For the molecule `Cc1ccc2nc[nH]c2c1`, the LC retention time is 7.74 min.

As for `CC(N)=O`, the LC retention time amounted to 1.61 min.

In the case of `CC1(N)CCC(C(C)(C)N)CC1` (stereo not given), the LC retention time was 7.19 min.

Take `CC[N+](CC)(CC)CCOc1cccc(OCC[N+](CC)(CC)CC)c1OCC[N+](CC)(CC)CC`: the LC retention time stood at 8.44 min.

Consider `NC(=O)C1(N2CCCCC2)CCN(C(=O)c2ccccc2)CC1`, for which the LC retention time came to 7.76 min.

As for `Cc1cc(O)c(C(C)C)cc1NC(=O)Cn1nc(C)c2ccccc2c1=O`, the LC retention time was determined as 11.9 min.

`Oc1ccc2cccc(-n3cccc3)c2c1`: the LC retention time came out at 14.1 min.

In the case of `NC1CCCCC1`, the LC retention time was 7.63 min.

In the case of `Cc1cc(C)c2ccc3ccccc3c2n1`, the LC retention time turned out to be 12.4 min.

For `Cc1ccc(C=NNC(N)=S)cc1`, the LC retention time was 10.8 min.

In the case of `c1ccc(Oc2nnc(-c3ccccc3)c3ccccc23)cc1`, the LC retention time was found to be 15.8 min.

Turning to `CNC(=O)CC1Nc2ccccc2NC1=O` (stereo not given), the LC retention time was found to be 7.34 min.

For the molecule `O=C(NCCCc1ccccc1)c1ccccc1O`, the LC retention time turned out to be 15.3 min.

On to `CCCCn1ccnc1`, for which the LC retention time was found to be 7.5 min.

`C1CCCNCCC1`: the LC retention time turned out to be 7.37 min.

Regarding `CC(C)(C)c1ccc(-c2nc3ccccc3s2)cc1`, the LC retention time was 21.3 min.

Consider `O=S(=O)(O)c1ccc(Nc2ccccc2)cc1`, for which the LC retention time was determined as 7.25 min.

On to `O=c1[nH]c2ccccc2[nH]c1=S`, for which the LC retention time worked out at 7.24 min.

On to `Cn1cnc2ccccc21`, for which the LC retention time was 7.26 min.

As to `CC(C)NCCCNC(C)C`, the LC retention time turned out to be 7.27 min.

Consider `Cn1c2c(c(=O)n(C)c1=O)C(CC(=O)O)C(=O)N2` (stereo not given), for which the LC retention time came out at 6.06 min.

Consider `CCCCCCCCCC(N)=O`, for which the LC retention time stood at 13.8 min.

For `Cc1[nH]c2ccccc2c1Cc1nc2ccccc2[nH]1`, the LC retention time amounted to 9.93 min.

With `Cc1ccncn1`, the LC retention time was 6.89 min.

Take `C1CCCNCC1`: the LC retention time came to 6.61 min.

As for `Nc1nc(N)c2nc(-c3ccccc3)c(N)nc2n1`, the LC retention time was 8.71 min.

As to `O=C(CCc1ccccc1)NNC(=S)NCc1ccccc1`, the LC retention time turned out to be 12.4 min.

For `NC(=S)NN=Cc1c2ccccc2cc2ccccc12`, the LC retention time stood at 13.7 min.

Regarding `CC(N)(CO)CO`, the LC retention time turned out to be 3.29 min.

For the molecule `O=C(O)c1ccc2[nH]c3c(c2c1)CCCC3`, the LC retention time came to 11.6 min.

In the case of `C=CN1CCCC1=O`, the LC retention time is 7.85 min.

Turning to `Cc1cccc(OCC(O)CNC(C)C)c1` (stereo not given), the LC retention time was 9.65 min.

Take `CCC1(c2ccccc2)C(=O)NC(=O)N(C)C1=O` (stereo not given): the LC retention time was 11.3 min.

Consider `c1cncc(-c2cn[nH]c2)c1`, for which the LC retention time was 6.56 min.

Turning to `CC1(C)CC(NC(=S)NC2CCCCC2)CC(C)(C)N1`, the LC retention time stood at 9.89 min.

For the molecule `CNCCNC`, the LC retention time came to 6.51 min.

With `O=C1NC(O)C(O)N1` (stereo not given), the LC retention time turned out to be 1.42 min.

Turning to `CN(C)CCN`, the LC retention time is 6.51 min.

On to `c1c[nH]cn1`, for which the LC retention time came to 2.95 min.

On to `CN1C(=O)NC(c2ccccc2)C2=C1CN(c1ccc(CC(=O)O)cc1)C2=O` (stereo not given), for which the LC retention time came to 9.56 min.

As for `O=C(O)CC(C(=O)O)c1c[nH]c2ccccc12` (stereo not given), the LC retention time came out at 8.46 min.

In the case of `O=C(O)c1cc(-c2ccccc2)nc2ccccc12`, the LC retention time was determined as 11.6 min.

Regarding `COC(=O)CCc1c(COC(C)=O)[nH]c(C(=O)OCc2ccccc2)c1C`, the LC retention time worked out at 15.1 min.

In the case of `CCCCCCC(N)=O`, the LC retention time came to 9.68 min.

As to `CC(C)c1ccc(OCC(=O)N2CCC(C(N)=O)CC2)cc1`, the LC retention time is 10.8 min.

On to `Nc1cccc(C(=O)O)c1N`, for which the LC retention time is 10.6 min.

Turning to `C=CCN(C)CC=C`, the LC retention time was 6.98 min.

As for `CCn1cc(CCO)c2ccccc21`, the LC retention time stood at 11.7 min.

For the molecule `Cc1cc(C)ncn1`, the LC retention time was determined as 7.51 min.

Turning to `O=C(Cc1cccc2ccccc12)N1CCN(Cc2ccccc2)CC1`, the LC retention time came to 10.4 min.

As to `NC(=O)Nc1ccccc1`, the LC retention time is 7.26 min.

In the case of `NCCc1cccs1`, the LC retention time amounted to 7.47 min.

In the case of `CC(C)(C)c1ccc(-c2cc(C(=O)O)c3c(ccc4ccccc43)n2)cc1`, the LC retention time was 16.4 min.

For the molecule `S=C(NCc1ccc2[nH]c3c(c2c1)CCCC3)Nc1cccc2ccccc12`, the LC retention time amounted to 16 min.

With `Nc1ccc2[nH]ccc2c1`, the LC retention time is 7.01 min.

In the case of `Cc1cc(C)cc(NC(=O)c2cc(-c3ccccc3)nc3ccccc23)c1`, the LC retention time came out at 17.9 min.

`CCOC(N)=O`: the LC retention time is 4.72 min.

Regarding `CC(=O)Oc1ccc2cccc(N(C(C)=O)C(C)=O)c2c1`, the LC retention time came out at 12 min.

With `Cn1c(=O)n(-c2cccc(N)c2)c(=O)n1C`, the LC retention time turned out to be 7.06 min.
